Here are results for three compounds from patent publication US7399771B2, “Piperidine derivatives as CCR5 inhibitors” (Novartis AG, priority 2002, dated 2008).

In assay [1] the target is T1, Human CCR5 (Homo sapiens, UniProt P51681).
T1 construct: expressed in transfected cells
The assay can be described thus: CCR5 functional assay - Ca2+ mobilization in CHO K1 CCR5 transfectants. The class given is cell-based. As to the method: b) CCR5 Functional Assay—Ca^2+ Mobilization Human CCR5 is used to generate stable transfectants in CHO K1 cells. These CCR5 transfectants are used for assessing Ca^2+ mobilization in response to stimulation by the CCR5 ligands MIP-1α, MIP-1β, HCC-1(9-74) or RANTES. For the assay the cells are loaded with a Ca^2+-sensitive fluorochrome (Fluo3 or Fluo4). Ligand concentrations between 0.01-100 nM are used to induce Ca^2+ mobilization which is monitored in a fluorometer with appropriate settings. To assess the activity of the compounds to be tested, a baseline fluorescence reading is taken after which the compounds at the desired concentration are added to the cells and fluorescence is further recorded for a certain time to assess whether compounds show agonistic effects. Next the agonist is added to the mixture and fluorescence monitored. The inhibition of Ca^2+ flux in the presence of the compounds to be tested is calculated from the inhibition of maximal fluorescence induced by the agonist. IC50 values are calculated from dose-response curves obtained with the compounds.

For assay [2], the target named is T1, Human CCR5. The assay can be described thus: CCR5 membrane binding assay ([I-125]MIP-1α radioligand, membranes of CHO K1 transfectants). The following applies: membranes of CHO K1 cells transfected with human CCR5; ligand 125-I MIP-1α. The method, then: a) CCR5 Membrane Binding Assay
Human CCR5 is used to generate stable transfectants in CHO K1 cells. Membranes prepared from these CCR5 transfectants are used in a radioligand binding assay using 125-I MIP-1α as a ligand and the compounds of formula I are tested for inhibitory activity.

Structures are written as SMILES.

T1 sequence (P51681 whole entry): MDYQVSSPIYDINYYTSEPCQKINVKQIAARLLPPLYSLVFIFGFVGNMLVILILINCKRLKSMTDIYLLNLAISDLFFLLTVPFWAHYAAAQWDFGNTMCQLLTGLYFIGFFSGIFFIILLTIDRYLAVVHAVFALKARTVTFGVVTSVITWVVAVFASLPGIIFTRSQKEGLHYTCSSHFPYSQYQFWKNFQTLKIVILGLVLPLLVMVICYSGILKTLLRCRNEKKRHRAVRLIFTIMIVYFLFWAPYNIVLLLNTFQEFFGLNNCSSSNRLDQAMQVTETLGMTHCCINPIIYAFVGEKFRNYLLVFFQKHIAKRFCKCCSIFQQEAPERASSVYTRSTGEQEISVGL

In the case of `Cc1cc[n+]([O-])c(C)c1C(=O)N1CCC(C)(N2CCC(N(Cc3ccsc3)c3ccccc3)CC2)CC1` [Example 36, (2,4-Dimethyl-1-oxy-pyridin-3-yl)-[4′-methyl-4-(phenyl-thiophen-3-ylmethyl-amino)-[1,4′]bipiperidinyl-1′-yl]-methanone], the half-inhibitory concentration (IC50) on Human CCR5 [1] (CHO K1 CCR5 transfectants, Fluo3 or Fluo4, agonist MIP-1α, MIP-1β, HCC-1(9-74) or RANTES, read-out: IC50, inhibition of Ca2+ flux) was 8 nM. `Cc1nc(CN(c2ccc(Cl)cc2)C2CCN(C3(C)CCN(C(=O)c4c(C)cccc4C)CC3)CC2)cs1` [Example 32] had a concentration for half-maximal inhibition (IC50) on Human CCR5 [2] of 0.5 nM. The compound `Cc1cc[n+]([O-])c(C)c1C(=O)N1CCC(C)(N2CCC(N(c3ccccc3)c3ccccn3)CC2)CC1` [Example 12, (2,4-Dimethyl-1-oxy-pyridin-3-yl)-[4′-methyl-4-(phenyl-pyridin-2-yl-amino)-[1,4′]bipiperidinyl-1′-yl]methanone] had a concentration for half-maximal inhibition (IC50) against Human CCR5 [1] of 29 nM.

In general, IC50 refers to the concentration that inhibits the measured activity by half.
